According to PubChem BioAssay AID652019 (Molecular Libraries Program, Specialized Chemistry Center, …, 2013):
Activity calls are given as the source filed them.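 Rule for the calls: active = compound whose activity held up on retesting over a range of doses, giving a fitted IC50; inactive = the rest.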

System: E. coli EV36, T7 phage lysis inhibition, OD600
Assay: blocking T7-induced lysis of EV36 cultures – OD600, set 6, selectivity assay for bacterial capsule biogenesis inhibitor project, dose response (AID 652019)

**Q.** How did the IC50 turn out when `Cc1cc(NC(=O)c2ccc3nc(NC(=O)OC(C)(C)C)sc3c2)ccn1` was run?
**A.** 0.49 µM

**Q.** `O=C(Nc1ccncc1Br)c1ccc2ncsc2c1` was tested. Which IC50 did it give?
**A.** > 50 µM (inactive)

**Q.** Which IC50 does the source give for `Cc1nc2ccc(C(=O)Nc3ccncc3C)cc2s1` here?
**A.** > 50 µM (inactive)

**Q.** With `O=C(Nc1ccnc(Cl)c1)c1ccc2nc(N3CCCC3)sc2c1` as the compound, how does the IC50 read?
**A.** > 50 µM (inactive)

**Q.** Which IC50 does the source give for `Cc1nc2ccc(C(=O)Nc3ccncc3F)cc2s1` here?
**A.** > 50 µM (inactive)

**Q.** Which IC50 does the source give for `CC(C)(C)OC(=O)Nc1cnccc1NC(=O)c1ccc2nc(N)sc2c1` here?
**A.** > 50 µM (inactive)

**Q.** How did the IC50 turn out when `CC(C)(C)OC(=O)Nc1nc2ccc(C(=O)Nc3ccncc3Br)cc2s1` was run?
**A.** > 50 µM (inactive)

**Q.** `O=C(Nc1ccncc1)c1ccc2nc(N3CCCC3)sc2c1` was tested. Which IC50 did it give?
**A.** > 50 µM (inactive)

**Q.** Which IC50 does the source give for `Cc1cnccc1NC(=O)c1ccc2nc(N3CCCC3)sc2c1` here?
**A.** > 50 µM (inactive)

**Q.** How did the IC50 turn out when `O=C(O)c1ccc2ncsc2c1` was run?
**A.** > 50 µM (inactive)

**Q.** With `CC(C)(C)OC(=O)Nc1nc2ccc(C(=O)Nc3ccnc(Br)c3)cc2s1` as the compound, how does the IC50 read?
**A.** 3.66 µM

**Q.** With `CC(C)(C)OC(=O)Nc1cnccc1NC(=O)c1ccc2ncsc2c1` as the compound, how does the IC50 read?
**A.** > 50 µM (inactive)

**Q.** Which IC50 does the source give for `Cc1cnccc1NC(=O)c1ccc2ncsc2c1` here?
**A.** 3.58 µM

**Q.** How did the IC50 turn out when `O=C(Nc1ccncc1F)c1ccc2nc(N3CCCC3)sc2c1` was run?
**A.** > 50 µM (inactive)

**Q.** With `CC(C)(C)OC(=O)Nc1nc2ccc(C(=O)Nc3ccnc(Cl)c3)cc2s1` as the compound, how does the IC50 read?
**A.** 0.49 µM

**Q.** `Cc1cnccc1NC(=O)c1ccc2nc(NC(=O)OC(C)(C)C)sc2c1` was tested. Which IC50 did it give?
**A.** > 50 µM (inactive)

**Q.** For `Cc1nc2ccc(C(=O)Nc3ccnc(F)c3)cc2s1`, which IC50 is on record?
**A.** > 50 µM (inactive)

**Q.** For `O=C(Nc1ccnc(Br)c1)c1ccc2nc(N3CCCC3)sc2c1`, which IC50 is on record?
**A.** > 50 µM (inactive)

**Q.** `Cc1nc2ccc(C(=O)Nc3ccncc3)cc2s1` was tested. Which IC50 did it give?
**A.** 2.54 µM

**Q.** `CC(C)(C)OC(=O)Nc1ccc(NC(=O)c2ccc3nc(N4CCCC4)sc3c2)cn1` was tested. Which IC50 did it give?
**A.** > 50 µM (inactive)

**Q.** Which IC50 does the source give for `COc1cc(NC(=O)c2ccc3nc(N)sc3c2)ccn1` here?
**A.** 0.94 µM

**Q.** With `Cc1cc(NC(=O)c2ccc3nc(N4CCCC4)sc3c2)ccn1` as the compound, how does the IC50 read?
**A.** > 50 µM (inactive)

**Q.** How did the IC50 turn out when `O=C(Nc1ccncc1F)c1ccc2ncsc2c1` was run?
**A.** 3.31 µM

**Q.** `Cc1cnccc1NC(=O)c1ccc2nc(N)sc2c1` was tested. Which IC50 did it give?
**A.** > 50 µM (inactive)

**Q.** With `Nc1nc2ccc(C(=O)Nc3ccncc3F)cc2s1` as the compound, how does the IC50 read?
**A.** > 50 µM (inactive)

**Q.** How did the IC50 turn out when `COc1cc(NC(=O)c2ccc3nc(N4CCCC4)sc3c2)ccn1` was run?
**A.** > 50 µM (inactive)

**Q.** With `CC(C)(C)OC(=O)Nc1ccc(NC(=O)c2ccc3nc(NC(=O)OC(C)(C)C)sc3c2)cn1` as the compound, how does the IC50 read?
**A.** > 50 µM (inactive)

**Q.** With `Nc1cnccc1NC(=O)c1ccc2ncsc2c1` as the compound, how does the IC50 read?
**A.** > 50 µM (inactive)

**Q.** With `Cc1nc2ccc(C(=O)Nc3cnccc3NC(=O)OC(C)(C)C)cc2s1` as the compound, how does the IC50 read?
**A.** > 50 µM (inactive)

**Q.** With `O=C(Nc1ccncc1Br)c1ccc2nc(N3CCCC3)sc2c1` as the compound, how does the IC50 read?
**A.** > 50 µM (inactive)

**Q.** With `COc1cc(NC(=O)c2ccc3nc(C)sc3c2)ccn1` as the compound, how does the IC50 read?
**A.** 3.96 µM

**Q.** How did the IC50 turn out when `Cc1nc2ccc(C(=O)Nc3ccncc3Br)cc2s1` was run?
**A.** > 50 µM (inactive)

**Q.** Which IC50 does the source give for `COc1cc(NC(=O)c2ccc3nc(NC(=O)OC(C)(C)C)sc3c2)ccn1` here?
**A.** > 50 µM (inactive)

**Q.** How did the IC50 turn out when `Nc1ccncc1` was run?
**A.** > 50 µM (inactive)

**Q.** With `CC(C)(C)OC(=O)Nc1nc2ccc(C(=O)Nc3ccnc(F)c3)cc2s1` as the compound, how does the IC50 read?
**A.** 1.16 µM

**Q.** How did the IC50 turn out when `Nc1nc2ccc(C(=O)Nc3ccncc3)cc2s1` was run?
**A.** > 50 µM (inactive)

**Q.** With `CC(C)(C)OC(=O)Nc1nc2ccc(C(=O)Nc3ccncc3)cc2s1` as the compound, how does the IC50 read?
**A.** > 50 µM (inactive)
